{"source": "ChEMBL document CHEMBL6074649", "about": "“An insight into recent developments in imidazole based heterocyclic compounds as anticancer agents: Synthesis, SARs, and mechanism of actions” (Eur J Med Chem, 2024)", "key": {"[1]": {"tested_on": "A549", "assay": "Antiproliferative activity against human A549 cells assessed as reduction in cell growth", "format": "functional, cell-based"}, "[2]": {"tested_on": "MG-63", "assay": "Antiproliferative activity against human MG-63 cells", "format": "functional, cell-based"}, "[3]": {"tested_on": "MCF7", "assay": "Antiproliferative activity against human MCF7 cells", "format": "functional, cell-based"}, "[4]": {"assay": "Antiproliferative activity against HEK293 cells", "format": "toxicity, cell-based", "conditions": "human"}, "[5]": {"tested_on": "NCI-H1299", "assay": "Anticancer activity against human NCI-H1299 cells at 100 uM relative to control", "format": "functional"}, "[6]": {"tested_on": "HCT-116", "assay": "Anticancer activity against human HCT-116 cells at 100 uM relative to control", "format": "functional"}, "[7]": {"tested_on": "PC-3", "assay": "Anticancer activity against human PC-3 cells at 100 uM relative to control", "format": "functional"}, "[8]": {"assay": "Antiproliferative activity against human BJ cells", "format": "toxicity, cell-based"}, "[9]": {"tested_on": "SiHa", "assay": "Antiproliferative activity against human SiHa cells", "format": "functional, cell-based"}, "[10]": {"tested_on": "A549", "assay": "Antiproliferative activity against human A549 cells", "format": "functional, cell-based"}, "[11]": {"tested_on": "MDA-MB-231", "assay": "Antiproliferative activity against human MDA-MB-231 cells assessed as reduction in cell viability after 48 hrs by SRB assay", "format": "functional, cell-based", "conditions": "MDA-MB-231, 48 h"}, "[12]": {"assay": "Antiproliferative activity against human IGR-39 cells assessed as reduction in cell viability after 48 hrs by SRB assay", "format": "functional, cell-based", "conditions": "IGR-39, 48 h"}, "[13]": {"tested_on": "A549", "assay": "Cytotoxicity against human A549 cells", "format": "functional, cell-based"}, "[14]": {"tested_on": "HeLa", "assay": "Cytotoxicity against human HeLa cells", "format": "functional, cell-based"}, "[15]": {"tested_on": "MCF7", "assay": "Cytotoxicity against human MCF7 cells", "format": "functional, cell-based"}, "[16]": {"assay": "Cytotoxicity against human MCF-10A cells", "format": "toxicity, cell-based"}, "[17]": {"tested_on": "B16-F10", "assay": "Cytotoxicity against mouse B16-F10 cells", "format": "functional, cell-based"}, "[18]": {"assay": "Cytotoxicity against mouse L929 cells", "format": "toxicity, cell-based"}, "[19]": {"assay": "Cytotoxicity against mouse EMT6/AR1 cells", "format": "functional, cell-based"}}}
{"compound": "COc1ccc2[nH]c(=O)c(-c3nc(-c4ccccc4)c(-c4ccccc4)[nH]3)cc2c1", "values": [{"measurement": "IC50", "setting": "[1]", "value": 39.4, "unit": "µM"}, {"measurement": "IC50", "setting": "[2]", "value": 62, "unit": "µM"}, {"measurement": "IC50", "setting": "[3]", "value": 50.1, "unit": "µM"}, {"measurement": "IC50", "setting": "[4]", "value": 86.5, "unit": "µM"}]}
{"compound": "O=C(CS(=O)(=O)NS(=O)(=O)CC(=O)Nc1nc(-c2ccc(Cl)cc2)c[nH]1)Nc1nc(-c2ccc(Cl)cc2)c[nH]1", "values": [{"measurement": "inhibition at 100 µM", "setting": "[5]", "value": 21.4, "unit": "%"}, {"measurement": "inhibition at 100 µM", "setting": "[6]", "value": 41.4, "unit": "%"}, {"measurement": "inhibition at 100 µM", "setting": "[7]", "value": 32.1, "unit": "%"}]}
{"compound": "CN1CCN(c2ccc(-c3nc(-c4ccc(N5C(=O)c6cccc7c(N8CCN(C)CC8)ccc(c67)C5=O)cc4)[nH]c3-c3ccc(N4CCN(C)CC4)cc3)cc2)CC1", "values": [{"measurement": "IC50", "setting": "[8]", "value": 13.3, "unit": "µM"}, {"measurement": "IC50", "setting": "[9]", "value": 5.4, "unit": "µM"}, {"measurement": "IC50", "setting": "[10]", "value": 6.5, "unit": "µM"}]}
{"compound": "CCn1c(-c2ccc(F)cc2)cn(-c2cccc(S(N)(=O)=O)c2)c1=O", "values": [{"measurement": "EC50", "setting": "[11]", "value": 20.5, "unit": "µM"}, {"measurement": "EC50", "setting": "[12]", "value": 27.8, "unit": "µM"}]}
{"compound": "COc1cc(C(=O)c2[nH]c(N)nc2-c2cccs2)cc(OC)c1OC", "values": [{"measurement": "IC50", "setting": "[13]", "value": 0.112, "unit": "µM"}, {"measurement": "IC50", "setting": "[14]", "value": 0.036, "unit": "µM"}, {"measurement": "IC50", "setting": "[15]", "value": 0.121, "unit": "µM"}, {"measurement": "IC50", "setting": "[16]", "value": 1.89, "unit": "µM"}, {"measurement": "IC50", "setting": "[17]", "value": 0.416, "unit": "µM"}, {"measurement": "IC50", "setting": "[18]", "value": 1.66, "unit": "µM"}, {"measurement": "IC50", "setting": "[19]", "value": 2.43, "unit": "µM"}]}
